Results: patent US20160100586A1, “MICROBIAL AGRICULTURE” (DSM IP ASSETS B.V., priority 2013, published 2016)

Tested on: Colletotrichum gloeosporioides (CBS272.51)
Assay: Agar plug bio-assay on YME agar, fungal colony radius towards Streptomyces or natamycin plug
Assay type: cell-based
Experimental: Three fungal plant pathogens were tested against the selected S. natalensis strains: Fusarium oxysporum f.sp. lycopersici (CBS414.90), Colletotrichum gloeosporioides (CBS272.51) and Alternaria alternata (CBS103.33). Fusarium oxysporum f.sp. lycopersici is a soil borne fungus causing yield loss in e.g. tomato crops (Fusarium Wilt). Colletotrichum gloeosporioides causes e.g. anthracnose, a plant disease recognizable by dark brown lesions on leaves and fruits. Alternaria alternata is a worldwide occurring saprophyte that can cause phytopathogenic reactions in economically important host plants. The selected S. natalensis strains were tested against these fungal plant pathogens as described below. Frozen vials (glycerol stocks) or freeze dried tubes from the selected S. natalensis strains were transferred to 100 ml baffled Erlenmeyer flasks containing 20 ml of Yeast Malt Extract broth (YME). Freeze dried tubes were resuspended in physiological saline and stored 1 hour at room temperature before they were transferred to the medium. The Erlenmeyer flasks were incubated in an incubator shaker for 3 days at 28° C. and 180 rpm. For each strain, 200 μl of liquid media was transferred to YME agar plates (90 mm petridishes containing 20 ml of media) and dispersed with the use of a sterile spreader onto the surface of the media). Subsequently, the agar plates were incubated for 4 days at 28° C. to enhance full colony coverage of the plate surface. The selected fungi were plated directly from a glycerol stock (200 μl) to YME agar and subsequently incubated for 4 days at 28° C. The bio-assay was done as follows. Overgrown Streptomyces and fungi plates made as described above were used to produce agar plugs. The plugs were made by cutting out the agar by using a sterile cork-borer (11 mm diameter) and subsequently removing it by a pre-sterilized spatula. Freshly produced non-inoculated YME agar plates were marked with a line on the back of the petridish. This line with a fixed length of 4 cm was placed in the middle of the petridish. Subsequently, a Streptomyces inoculated agar plug was transferred to the fresh YME agar plate at the left end of the line. The above-described “plug transfer” step was repeated for the respective fungi. The respective fungi plugs were placed at the right end of the line on the same YME agar plate. Each Streptomyces strain was challenged in triplicate against each fungus. For each tested fungus, a control sample was taken (in triplicate) by using a non-inoculated agar plug that was placed on the left side of the petridish. Next, the plates were placed with the plugs on top in an incubator. Subsequently, the plates were stored at 28° C. for 7 days. After 7 days the radius of the fungal colony was measured in the direction of the opposite agar plug (Streptomyces sample). This step was repeated for the control sample. The inhibition zone (in percentage) was calculated by using the following formula: 100%*(r0−r1)/r0 wherein r0 is the radius (in mm, corrected for the plug radius) of the fungal colony from the control sample and wherein r1 is the radius (in mm, corrected for the plug radius) of the fungal colony from the Streptomyces inhibited sample. Frozen vials (glycerol stocks) from the selected S. natalensis strains were transferred to 100 ml baffled Erlenmeyer flasks containing 20 ml of Yeast Malt Extract broth (YME). The Erlenmeyer flasks were incubated in an incubator shaker for 3 days at 28° C. and 180 rpm. For each strain, 200 μl of liquid media was transferred to YME agar plates and incubated for 4 days at 28° C. to enhance full colony coverage of the plate surface. Botrytis cinerea was plated directly from glycerol stock (100 μl) to YME agar and subsequently incubated for 9 days at 28° C. All other selected fungi were plated directly from a glycerol stock (200 μl) to YME agar and subsequently incubated for 4 days at 28° C. […]

`C[C@@H]1C/C=C/C=C/C=C/C=C/[C@H](O[C@@H]2O[C@H](C)[C@@H](O)[C@H](N)[C@@H]2O)C[C@@H]2O[C@](O)(C[C@@H](O)C[C@H]3O[C@@H]3/C=C/C(=O)O1)C[C@H](O)[C@H]2C(=O)O` [Natamycin, natamycin] gave an inhibition at 10 ppm (Colletotrichum gloeosporioides, CBS272, 168 h, Example 7, agar plug with 10 ppm natamycin, 5% w/w methanol, 7 days at 28° C., read-out: Average inhibition zone (in %)) of 4%, an inhibition at 25 ppm (Colletotrichum gloeosporioides, CBS272, 168 h, Example 7, agar plug with 25 ppm natamycin, 5% w/w methanol, 7 days at 28° C., read-out: Average inhibition zone (in %)) of 7% and an inhibition at 50 ppm (Colletotrichum gloeosporioides, CBS272, 168 h, Example 7, agar plug with 50 ppm natamycin, 5% w/w methanol, 7 days at 28° C., read-out: Average inhibition zone (in %)) of 15%. For the same compound, the inhibition at 75 ppm (Colletotrichum gloeosporioides, CBS272, 168 h, Example 7, agar plug with 75 ppm natamycin, 5% w/w methanol, 7 days at 28° C., read-out: Average inhibition zone (in %)) was 18%, the inhibition at 100 ppm (Colletotrichum gloeosporioides, CBS272, 168 h, Example 7, agar plug with 100 ppm natamycin, 5% w/w methanol, 7 days at 28° C., read-out: Average inhibition zone (in %)) was 21% and the inhibition at 175 ppm (Colletotrichum gloeosporioides, CBS272, 168 h, Example 7, agar plug with 175 ppm natamycin, 5% w/w methanol, 7 days at 28° C., read-out: Average inhibition zone (in %)) was 25%. For the same compound, the inhibition at 250 ppm (Colletotrichum gloeosporioides, CBS272, 168 h, Example 7, agar plug with 250 ppm natamycin, 5% w/w methanol, 7 days at 28° C., read-out: Average inhibition zone (in %)) was 28%, the inhibition at 375 ppm (Colletotrichum gloeosporioides, CBS272, 168 h, Example 7, agar plug with 375 ppm natamycin, 5% w/w methanol, 7 days at 28° C., read-out: Average inhibition zone (in %)) was 35% and the inhibition at 500 ppm (Colletotrichum gloeosporioides, CBS272, 168 h, Example 7, agar plug with 500 ppm natamycin, 5% w/w methanol, 7 days at 28° C., read-out: Average inhibition zone (in %)) was 41%. For the same compound, the “natamycin concentration in agar plug giving similar inhibition zone as the S. natalensis ATCC-27448 agar plug” value (Example 7, 7 days at 28° C.) was “approximately 375 ppm”, the “Fungal radius (in mm)” value (Example 7, agar plug with 10 ppm natamycin, 5% w/w methanol, 7 days at 28° C.) was 44.3 mm and the “Fungal radius (in mm)” value (Example 7, agar plug with 25 ppm natamycin, 5% w/w methanol, 7 days at 28° C.) was 43.2 mm. For the same compound, the “Fungal radius (in mm)” value (Example 7, agar plug with 50 ppm natamycin, 5% w/w methanol, 7 days at 28° C.) was 39.3 mm, the “Fungal radius (in mm)” value (Example 7, agar plug with 75 ppm natamycin, 5% w/w methanol, 7 days at 28° C.) was 37.8 mm and the “Fungal radius (in mm)” value (Example 7, agar plug with 100 ppm natamycin, 5% w/w methanol, 7 days at 28° C.) was 36.7 mm. The “Fungal radius (in mm)” value (Example 7, agar plug with 175 ppm natamycin, 5% w/w methanol, 7 days at 28° C.) was 34.8 mm, the “Fungal radius (in mm)” value (Example 7, agar plug with 250 ppm natamycin, 5% w/w methanol, 7 days at 28° C.) was 33.2 mm and the “Fungal radius (in mm)” value (Example 7, agar plug with 375 ppm natamycin, 5% w/w methanol, 7 days at 28° C.) was 30.3 mm. The “Fungal radius (in mm)” value (Example 7, agar plug with 500 ppm natamycin, 5% w/w methanol, 7 days at 28° C.) was 27.3 mm.
